Experimental data published in ChEMBL document CHEMBL2057111, “(+)-Pinoresinol is a putative hypoglycemic agent in defatted sesame (Sesamum indicum) seeds though inhibiting α-glucosidase” (Bioorg Med Chem Lett, 2012).
pIC50: −log10 of the molar value. The source made the active and inactive calls. No cut-off for these calls is given here.

What was measured:
[1] = molecular target: Sucrase-isomaltase, intestinal (Rattus norvegicus) (UniProt P23739); experiment: Inhibition of rat intestinal sucrase using sucrose as substrate at 10 mg/ml preincubated for 10 mins before substrate addition by glucose oxidase method
[2] = molecular target: Lysosomal alpha-glucosidase (Rattus norvegicus) (UniProt Q6P7A9); experiment: Inhibition of rat intestinal maltase using maltose as substrate at 10 mg/ml preincubated for 10 mins before substrate addition by glucose oxidase method
Saccharomyces cerevisiae = experiment: Inhibition of bakers yeast alpha-glucosidase using p-nitrophenyl-(alpha-D-glucopyranoside) as substrate at 10 mg/ml preincubated for 10 mins before substrate addition by microplate reader
[3] = Inhibition of bakers yeast alpha-glucosidase using p-nitrophenyl-(alpha-D-glucopyranoside) as substrate preincubated for 10 mins before substrate addition by microplate reader; set-up: species or system Saccharomyces cerevisiae
[4] = molecular target: Lysosomal alpha-glucosidase (Rattus norvegicus) (UniProt Q6P7A9); details: 0.1 to 1 mg/ml
[5] = molecular target: Lysosomal alpha-glucosidase (Rattus norvegicus) (UniProt Q6P7A9); details: 0.1 to 1 mg/ml; remark: listed apart in the source
Description: Mixed type inhibition of rat intestinal maltase using maltose as substrate at 0.1 to 1 mg/ml

[6] = molecular target: Lysosomal alpha-glucosidase (Rattus norvegicus) (UniProt Q6P7A9); details: 0.1 to 1 mg/ml; remark: listed apart in the source
Description: Non-competitive inhibition of rat intestinal maltase using maltose as substrate assessed as enzyme-substrate-inhibitor complex formation at 0.1 to 1 mg/ml by Lineweaver-Burk plot analysis

Sequence of Lysosomal alpha-glucosidase (Rattus norvegicus) (Q6P7A9 whole entry): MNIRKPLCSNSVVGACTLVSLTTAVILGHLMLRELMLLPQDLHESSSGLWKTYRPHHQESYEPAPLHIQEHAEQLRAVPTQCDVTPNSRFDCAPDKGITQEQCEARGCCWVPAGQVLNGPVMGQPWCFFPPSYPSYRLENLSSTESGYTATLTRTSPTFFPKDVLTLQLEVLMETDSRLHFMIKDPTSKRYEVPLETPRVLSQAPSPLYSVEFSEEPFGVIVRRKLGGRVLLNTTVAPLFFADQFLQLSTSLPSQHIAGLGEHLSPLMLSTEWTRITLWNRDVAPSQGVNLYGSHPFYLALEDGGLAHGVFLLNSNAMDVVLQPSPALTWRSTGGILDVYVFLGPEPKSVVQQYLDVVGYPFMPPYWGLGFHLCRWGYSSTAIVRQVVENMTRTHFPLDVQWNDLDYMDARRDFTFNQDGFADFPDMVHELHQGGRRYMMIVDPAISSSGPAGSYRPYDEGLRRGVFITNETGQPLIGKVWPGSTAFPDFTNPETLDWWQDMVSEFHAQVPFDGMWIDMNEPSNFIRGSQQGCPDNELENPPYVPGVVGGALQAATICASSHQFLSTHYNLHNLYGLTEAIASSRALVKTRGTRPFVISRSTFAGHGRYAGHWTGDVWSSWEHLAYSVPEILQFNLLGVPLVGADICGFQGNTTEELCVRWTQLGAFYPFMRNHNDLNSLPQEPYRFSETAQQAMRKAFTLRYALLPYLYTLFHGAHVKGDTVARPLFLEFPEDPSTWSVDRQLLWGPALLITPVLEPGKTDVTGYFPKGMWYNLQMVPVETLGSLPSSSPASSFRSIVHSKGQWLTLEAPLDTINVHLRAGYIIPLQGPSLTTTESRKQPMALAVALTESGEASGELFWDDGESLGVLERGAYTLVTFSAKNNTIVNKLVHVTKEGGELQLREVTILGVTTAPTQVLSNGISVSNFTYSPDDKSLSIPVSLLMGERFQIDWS
Sequence of Sucrase-isomaltase, intestinal (Rattus norvegicus) (P23739 1-1013 limits assumed): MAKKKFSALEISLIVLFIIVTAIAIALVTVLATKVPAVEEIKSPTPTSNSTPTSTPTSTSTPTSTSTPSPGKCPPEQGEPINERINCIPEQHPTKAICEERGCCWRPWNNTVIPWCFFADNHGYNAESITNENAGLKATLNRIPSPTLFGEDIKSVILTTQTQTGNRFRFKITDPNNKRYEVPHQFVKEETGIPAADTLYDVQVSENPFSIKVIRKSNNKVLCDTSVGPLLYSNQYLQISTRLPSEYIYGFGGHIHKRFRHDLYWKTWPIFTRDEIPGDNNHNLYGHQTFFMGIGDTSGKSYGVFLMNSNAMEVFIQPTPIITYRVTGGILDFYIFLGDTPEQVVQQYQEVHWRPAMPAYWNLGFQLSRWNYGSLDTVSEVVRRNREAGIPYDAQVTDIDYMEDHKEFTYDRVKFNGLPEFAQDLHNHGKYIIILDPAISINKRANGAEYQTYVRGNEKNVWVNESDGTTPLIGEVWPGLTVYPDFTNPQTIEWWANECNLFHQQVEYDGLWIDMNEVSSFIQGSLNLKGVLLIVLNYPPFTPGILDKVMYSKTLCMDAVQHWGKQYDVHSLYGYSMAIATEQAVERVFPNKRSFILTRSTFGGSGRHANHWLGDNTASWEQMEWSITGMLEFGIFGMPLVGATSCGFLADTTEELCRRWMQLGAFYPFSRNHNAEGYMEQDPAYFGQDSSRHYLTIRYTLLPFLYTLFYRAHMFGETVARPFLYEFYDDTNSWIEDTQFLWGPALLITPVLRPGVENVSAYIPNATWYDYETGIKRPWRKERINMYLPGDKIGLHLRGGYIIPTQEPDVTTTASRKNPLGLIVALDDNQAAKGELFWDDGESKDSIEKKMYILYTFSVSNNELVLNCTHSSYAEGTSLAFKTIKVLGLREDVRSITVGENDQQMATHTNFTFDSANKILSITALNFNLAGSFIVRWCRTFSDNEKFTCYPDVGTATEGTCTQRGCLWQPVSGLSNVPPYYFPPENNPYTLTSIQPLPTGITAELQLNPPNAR
Sequence of Sucrase-isomaltase, intestinal (Rattus norvegicus) (P23739 1014-1841 limits assumed): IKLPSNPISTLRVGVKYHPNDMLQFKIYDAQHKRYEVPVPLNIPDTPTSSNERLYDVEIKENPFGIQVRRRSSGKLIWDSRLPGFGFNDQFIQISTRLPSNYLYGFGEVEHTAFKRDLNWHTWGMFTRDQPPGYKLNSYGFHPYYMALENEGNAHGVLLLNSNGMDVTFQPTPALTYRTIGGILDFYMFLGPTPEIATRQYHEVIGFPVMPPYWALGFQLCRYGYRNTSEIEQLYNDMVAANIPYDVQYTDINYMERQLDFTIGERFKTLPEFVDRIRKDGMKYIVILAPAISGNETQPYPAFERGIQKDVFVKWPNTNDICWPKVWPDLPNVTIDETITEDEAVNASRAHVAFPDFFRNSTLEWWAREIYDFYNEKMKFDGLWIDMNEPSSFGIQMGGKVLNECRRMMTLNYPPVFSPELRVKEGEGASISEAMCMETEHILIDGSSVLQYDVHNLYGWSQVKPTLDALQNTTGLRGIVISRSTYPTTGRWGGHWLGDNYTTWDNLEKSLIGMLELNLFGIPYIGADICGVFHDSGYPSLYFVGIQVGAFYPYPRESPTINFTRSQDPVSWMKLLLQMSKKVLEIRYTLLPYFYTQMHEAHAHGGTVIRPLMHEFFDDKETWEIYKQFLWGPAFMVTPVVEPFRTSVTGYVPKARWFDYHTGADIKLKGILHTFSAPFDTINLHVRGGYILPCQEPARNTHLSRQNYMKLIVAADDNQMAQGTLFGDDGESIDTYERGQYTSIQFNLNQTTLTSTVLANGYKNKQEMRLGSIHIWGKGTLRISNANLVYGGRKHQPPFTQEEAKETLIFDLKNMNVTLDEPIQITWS

OC[C@H]1O[C@@H](Oc2cc3c(cc2[C@H]2OC[C@H]4[C@@H]2CO[C@@H]4c2ccc4c(c2)OCO4)OCO3)[C@H](O)[C@@H](O)[C@@H]1O
inhibition [1]: < 30% | inhibition [2]: < 30% | inhibition (Saccharomyces cerevisiae): < 30%

c1cc2c(cc1[C@H]1OC[C@H]3[C@@H]1CO[C@@H]3c1ccc3c(c1)OCO3)OCO2 [SESAMIN]
inhibition [1]: < 30% | pIC50 [3]: 3.35 | inhibition [2]: < 30%

c1cc2c(cc1O[C@H]1OC[C@H]3[C@@H]1CO[C@@H]3c1ccc3c(c1)OCO3)OCO2 [SESAMOLIN]
inhibition [1]: < 30% | pIC50 [3]: 3.70 | inhibition [2]: < 30%

COc1cc([C@@H]2OC[C@@H]3[C@H]2CO[C@H]3c2ccc(O)c(OC)c2)ccc1O [(+)-PINORESINOL]
inhibition [1]: < 30% | inhibition [4]: Active | pIC50 [3]: 3.31 | inhibition [5]: Active | inhibition [6]: Active
